This is an account of results in patent US12533439B2, “Antibacterial wound treatments with clot-promoting properties” (University of Georgia Research Foundation, Inc., priority 2019, dated 2026).

Data set [1] relates to 3T3 mouse fibroblast cells. The data set can be described thus: WST-8 (CCK-8) cell viability assay on dressing leachates. It counts as cell-based. The note with it: 24-hour leachate.
Source text: The manufacturer's (Sigma-Aldrich) protocol was followed while using CCK-8 kit which utilizes highly water-soluble tetrazolium salt. In the live cells, WST-8 [2-(2-methoxy-4-nitrophenyl)-3-(4-nitrophenyl)-5-(2,4-disulfophenyl)-2H-tetrazolium monosodium salt] is reduced by dehydrogenases to give formazan (an orange-colored product), which can be detected at 450 nm. This means that a noncytotoxic material should generate a higher level of formazan than a relatively cytotoxic material because of WST-8 reduction. To obtain the leachate, samples weighing 10 mg each were added to 10 ml to in the DMEM medium for 24 hours at 37° C. The leachate was later used to grow the cells.
Seeding of cells. A culture of the fibroblast cells was grown in a 75 cm2 T-flask with Dulbecco modified Eagle's medium (DMEM) with 4.5 g/L-glutamine, 4.5 g/L glucose, 1% penicillin-streptomycin and 10% fetal bovine serum (FBS) after thawing a cryopreserved vial of fibroblast cells.^11 The cells could proliferate in an incubator which provided a physiological condition for their growth (5% CO2, 37° C.) until the confluence reached around 80-90%. […] The formula below was used to calculate cell viability.^12
To ensure that the components of wound dressing—CarboSil®, SNAP, TXA, and propolis—are not cytotoxic to the mammalian cells, a 24-hour cytotoxicity study was conducted on mouse fibroblast cells.
For data set [2] the following is noted: TXA administered within 1 hour of injury; cited from earlier work.

As to `CC(=O)N[C@H](C(=O)O)C(C)(C)SN=O` (racemic) [SNAP, S-nitroso-N-acetylpenicillamine], in data set [1], the “cytotoxicity (relative cell viability)” value was “non-cytotoxic”.
`NC[C@H]1CC[C@H](C(=O)O)CC1` [TXA, tranexamic acid]: the reduction in deaths in data set [2] is listed as 32%.
